In PubChem BioAssay AID624129 (Sanford-Burnham Center for Chemical Genomics, 2012):
The source made the active and inactive calls. The rule behind the calls is not given here.

Molecular target: C-X-C chemokine receptor type 6 (Homo sapiens) (UniProt O00574)
Assay: CXCR6 receptor antagonists, dose response, cell-based, beta-arrestin, DiscoveRx, APJ panel, uHTS hits (AID 624129)
Conditions: CXCR6 beta-arrestin (DiscoveRx) antagonist cell assay; for outcome: CXCR6, dose range 1; for inhibition: CXCR6, run 2, dose range 1, at 79 µM (top of the series)
[1] = CXCR6, dose range 1, mean IC50 across replicates

C-X-C chemokine receptor type 6 (Homo sapiens), sequence (O00574 whole entry, looked up): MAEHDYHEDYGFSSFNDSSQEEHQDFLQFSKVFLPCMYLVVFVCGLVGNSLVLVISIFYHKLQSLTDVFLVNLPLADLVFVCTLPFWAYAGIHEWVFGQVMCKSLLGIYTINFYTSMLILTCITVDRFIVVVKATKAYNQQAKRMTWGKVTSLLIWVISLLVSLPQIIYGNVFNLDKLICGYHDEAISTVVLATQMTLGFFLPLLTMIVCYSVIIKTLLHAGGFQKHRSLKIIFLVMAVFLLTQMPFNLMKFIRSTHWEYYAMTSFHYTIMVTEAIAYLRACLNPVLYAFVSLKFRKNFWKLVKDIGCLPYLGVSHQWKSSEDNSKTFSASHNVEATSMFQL

Row | SMILES | outcome | IC50 [1] [µM] | IC50 (CXCR6, run 1, dose range 2) [µM] | inhibition [%] | IC50 (CXCR6, run 2, dose range 2) [µM]
1 | Cc1cccc(NC(=S)NNc2ncc(C(F)(F)F)cc2Cl)c1 | inactive | 20.5 | 26.4 | 109 | 14.7
2 | CN(CC(=O)Nc1cc(S(=O)(=O)N2CCCC2)ccc1Cl)Cc1cccs1 | inactive | 11.5 | 11.4 | 78.8 | 11.6
3 | CCCC/C=C1/CCC(CN(C)C)C1=O (stereo not given) | inactive | 22.6 | 22.3 | 110 | 22.8
4 | O=C(Nc1ccc(F)cc1)c1nc(S(=O)(=O)Cc2ccccc2)ncc1Cl | inactive | 12.9 | 12.5 | 112 | 13.4
5 | O=C1CC(Sc2nnnn2-c2ccccc2)C(=O)N1c1cccc(Cl)c1 (stereo not given) | inactive | 11.9 | 11.7 | 112 | 12.2
6 | CCOc1cc(/C=C2\N=C(SC)SC2=O)cc([N+](=O)[O-])c1OC(C)=O | inactive | 28.3 | 27.7 | 98.2 | 28.8
7 | C/C(=N\Nc1nc2ccccc2[nH]1)c1ccccn1 | active | 3.33 | 3.33 | -12.1 | > 79
8 | Cc1nnc(Sc2cc(NCCO)c([N+](=O)[O-])c3nonc23)s1 | inactive | 12.1 | 9.44 | 114 | 14.7
9 | CCOc1cc(/C=C2\C(=O)N(c3cccc(C(F)(F)F)c3)C(=O)c3ccccc32)ccc1O | inactive | 49.2 | 49.2 | 81 | > 79
10 | CC1(C)Cc2ccccc2C(NNC(=O)c2ccccn2)=N1 | inactive | 19.1 | 18 | 108 | 20.2
11 | CC1(C)CC[C@]2(C(=O)n3ccnc3)CC[C@]3(C)[C@H](C(=O)C=C4[C@@]5(C)C=C(C#N)C(=O)C(C)(C)[C@@H]5CC[C@]43C)[C@@H]2C1 | inactive | 16.4 | 14.4 | 105 | 18.4
12 | N=C1SCC(=O)N1c1ncc(Cc2ccccc2Cl)s1 | inactive | 12 | 10.5 | 78.1 | 13.5
13 | O=C(Nc1ccccc1)c1nnsc1S(=O)c1ccc(Cl)cc1 (stereo not given) | inactive | 11.5 | 11.9 | 111 | 11.2
14 | CCOc1ccc(/C=C/[N+](=O)[O-])c2ccccc12 | inactive | 17.2 | 17.3 | 109 | 17.1
15 | Cc1ccc(-n2c(SCCN)nnc2-c2cccc(C)c2)cc1 | inactive | 66.9 | 66.8 | 76.2 | 67
16 | COC(=O)c1ccc(C)c(-n2c(=O)n(Cc3ccccc3)c(=O)c3[nH]cnc32)c1 | inactive | 12.9 | 11.6 | 73 | 14.1
17 | Cc1ccc(OCC(=O)NNC(=S)NC(=O)C2CC2)c(C)c1 | inactive | 14.2 | 10.3 | 72.3 | 18.1
18 | O=[N+]([O-])c1ccc(N/N=C/c2sc(N3CCOCC3)nc2-c2ccccc2)c(S(=O)(=O)Nc2ccc(Cl)cc2)c1 | inactive | 55.1 | 72.8 | 99.6 | 37.3
19 | CC(=O)NS(=O)(=O)c1ccc(Nc2ccc([N+](=O)[O-])c3nonc23)cc1 | inactive | 46.6 | 35.6 | 85.9 | 57.6
20 | COc1cc(C(=O)NCC(c2ccco2)N2CCc3ccccc3C2)cc(OC)c1OC (stereo not given) | inactive | 22.3 | 16.7 | 72.2 | 27.8
21 | CCn1c(=O)cc(NC2=NCC(C)CN2c2cccc(Cl)c2)n(C)c1=O (stereo not given) | inactive | 19.1 | 19.3 | 79 | 19
22 | COc1cc(/C=C(\C#N)c2nc3ccccc3o2)ccc1O | inactive | 35.5 | 28.8 | 73.9 | 42.1
23 | CCc1nnc(NS(=O)(=O)c2ccc(Nc3ccc([N+](=O)[O-])c4nonc34)cc2)s1 | inactive | 34.1 | 29.8 | 92.2 | 38.4
24 | O=C(NNc1ccc([N+](=O)[O-])cc1[N+](=O)[O-])c1ccco1 | inactive | 30.2 | 30.4 | 86.8 | 29.9
